Source: paper PMC11003488 (Journal of Enzyme Inhibition and Medicinal Chemistry, 2023)

Legend:
Experiment in all cases: NCI-60 SRB growth inhibition, one-dose and five-dose
Assay type in all cases: cell-based
MALME-3M = conditions: Homo sapiens
PC-3 = conditions: Homo sapiens
SK-MEL-5 = conditions: Homo sapiens
SN12C = conditions: Homo sapiens
MDA-MB-435 = conditions: Homo sapiens
HOP-62 = conditions: Homo sapiens
HOP-92 = conditions: Homo sapiens
DU-145 = conditions: Homo sapiens
K-562 = conditions: Homo sapiens
HT29 = conditions: Homo sapiens
HCC-2998 = conditions: Homo sapiens
MCF7 = conditions: Homo sapiens
NCI-H322M = conditions: Homo sapiens
BT-549 = conditions: Homo sapiens
EKVX = conditions: Homo sapiens
A549/ATCC = conditions: Homo sapiens
A498 = conditions: Homo sapiens
NCI-H23 = conditions: Homo sapiens
SNB-75 = conditions: Homo sapiens
LOX IMVI = conditions: Homo sapiens
UACC-62 = conditions: Homo sapiens
SK-OV-3 = conditions: Homo sapiens
NCI-H226 = conditions: Homo sapiens
NCI-H460 = conditions: Homo sapiens
KM12 = conditions: Homo sapiens
SK-MEL-28 = conditions: Homo sapiens
CAKI-1 = conditions: Homo sapiens
SR = conditions: Homo sapiens
SK-MEL-2 = conditions: Homo sapiens
TK-10 = conditions: Homo sapiens
OVCAR-8 = conditions: Homo sapiens
T-47D = conditions: Homo sapiens, T47D
RPMI-8226 = conditions: Homo sapiens
MDA-MB-468 = conditions: Homo sapiens
CCRF-CEM = conditions: Homo sapiens
M14 = conditions: Homo sapiens
U251 = conditions: Homo sapiens
NCI/ADR-RES = conditions: Homo sapiens
786-0 = conditions: Homo sapiens
ACHN = conditions: Homo sapiens
NCI-H522 = conditions: Homo sapiens
SW-620 = conditions: Homo sapiens
SF-268 = conditions: Homo sapiens
[1] = read-out: percent growth inhibition

Cc1ccc(CNc2cccc(C(=O)/C=C/c3cccnc3)c2)cc1 [Compound 5a, (E)-1–(3-((4-methylbenzyl)amino)phenyl)-3-(pyridin-3-yl)prop-2-en-1-one]
GI50 (MALME-3M): 13.6 µM | inhibition at 10 µM (MALME-3M; [1]): 127% | GI50 (PC-3; PC-3): 14.2 µM | inhibition at 10 µM (PC-3; PC-3, read-out: percent growth inhibition): 84.8% | GI50 (SK-MEL-5; SK-MEL-5): 8.96 µM | inhibition at 10 µM (SK-MEL-5; SK-MEL-5, read-out: percent growth inhibition): 74.9% | GI50 (SN12C): 12.6 µM | inhibition at 10 µM (SN12C; [1]): 118% | GI50 (MDA-MB-435; MDA-MB-435): 3.04 µM | inhibition at 10 µM (MDA-MB-435; MDA-MB-435, read-out: percent growth inhibition): 92% | GI50 (HOP-62; HOP-62): 15.6 µM | inhibition at 10 µM (HOP-62; HOP-62, read-out: percent growth inhibition): 15.1% | GI50 (HOP-92; HOP-92): 10.9 µM | inhibition at 10 µM (HOP-92; HOP-92, read-out: percent growth inhibition): 41.8% | GI50 (DU-145; DU-145): 13.3 µM | inhibition at 10 µM (DU-145; DU-145, read-out: percent growth inhibition): 53.9% | GI50 (K-562; K562): 3.09 µM | inhibition at 10 µM (K-562; K562, read-out: percent growth inhibition): 93.6% | GI50 (HT29; HT-29): 14.1 µM | inhibition at 10 µM (HT29; HT-29, read-out: percent growth inhibition): 159% | GI50 (HCC-2998; HCC 2998): 14.1 µM | inhibition at 10 µM (HCC-2998; HCC 2998, read-out: percent growth inhibition): 52.8% | GI50 (MCF7; MCF7): 2.79 µM | inhibition at 10 µM (MCF7; MCF7, read-out: percent growth inhibition): 148% | GI50 (NCI-H322M): 15.7 µM | inhibition at 10 µM (NCI-H322M; [1]): 19.6% | GI50 (BT-549; BT-549): 10.4 µM | inhibition at 10 µM (BT-549; BT-549, read-out: percent growth inhibition): 111% | GI50 (EKVX): 12.8 µM | inhibition at 10 µM (EKVX; [1]): 52.3% | GI50 (A549/ATCC; A549): 17.3 µM | inhibition at 10 µM (A549/ATCC; A549, read-out: percent growth inhibition): 27.2% | GI50 (A498; A498): 14.4 µM | inhibition at 10 µM (A498; A498, read-out: percent growth inhibition): 14.1% | GI50 (NCI-H23; NCI-H23): 12.2 µM | inhibition at 10 µM (NCI-H23; NCI-H23, read-out: percent growth inhibition): 47.9% | GI50 (SNB-75; SNB-75): 13.1 µM | inhibition at 10 µM (SNB-75; SNB-75, read-out: percent growth inhibition): 46.6% | GI50 (LOX IMVI): 1.88 µM | inhibition at 10 µM (LOX IMVI; [1]): 195% | GI50 (UACC-62; UACC-62): 11.1 µM | inhibition at 10 µM (UACC-62; UACC-62, read-out: percent growth inhibition): 58.4% | GI50 (SK-OV-3; SK-OV-3): 16.1 µM | inhibition at 10 µM (SK-OV-3; SK-OV-3, read-out: percent growth inhibition): 60.2% | GI50 (NCI-H226; NCI-H226): 11.9 µM | inhibition at 10 µM (NCI-H226; NCI-H226, read-out: percent growth inhibition): 37.9% | GI50 (NCI-H460; NCI-H460): 12.9 µM | inhibition at 10 µM (NCI-H460; NCI-H460, read-out: percent growth inhibition): 42% | GI50 (KM12; KM12): 8.36 µM | inhibition at 10 µM (KM12; KM12, read-out: percent growth inhibition): 155% | GI50 (SK-MEL-28; SK-MEL-28): 14.7 µM | inhibition at 10 µM (SK-MEL-28; SK-MEL-28, read-out: percent growth inhibition): 71.6% | GI50 (CAKI-1; CAKI-1): 11.7 µM | inhibition at 10 µM (CAKI-1; CAKI-1, read-out: percent growth inhibition): 36.7% | GI50 (SR): 2.82 µM | inhibition at 10 µM (SR; [1]): 85.6% | GI50 (SK-MEL-2; SK-MEL-2): 14.3 µM | inhibition at 10 µM (SK-MEL-2; SK-MEL-2, read-out: percent growth inhibition): 35.9% | GI50 (TK-10; TK-10): 14.4 µM | inhibition at 10 µM (TK-10; TK-10, read-out: percent growth inhibition): 18.9% | GI50 (OVCAR-8; OVCAR-8): 13.1 µM | inhibition at 10 µM (OVCAR-8; OVCAR-8, read-out: percent growth inhibition): 88.3% | GI50 (T-47D): 9.84 µM | inhibition at 10 µM (T-47D; [1]): 105% | GI50 (RPMI-8226; RPMI-8226): 1.76 µM | inhibition at 10 µM (RPMI-8226; RPMI-8226, read-out: percent growth inhibition): 98.6% | GI50 (MDA-MB-468; MDA-MB-468): 6.3 µM | inhibition at 10 µM (MDA-MB-468; MDA-MB-468, read-out: percent growth inhibition): 153% | GI50 (CCRF-CEM): 2.58 µM | inhibition at 10 µM (CCRF-CEM; [1]): 53.1% | GI50 (M14; M14): 13.1 µM | inhibition at 10 µM (M14; M14, read-out: percent growth inhibition): 92.7% | GI50 (U251; U-251): 9.87 µM | inhibition at 10 µM (U251; U-251, read-out: percent growth inhibition): 193% | GI50 (NCI/ADR-RES): 7.54 µM | GI50 (786-0; 786-0): 15.5 µM | inhibition at 10 µM (786-0; 786-0, read-out: percent growth inhibition): 126% | GI50 (ACHN): 14 µM | inhibition at 10 µM (ACHN; [1]): 130% | GI50 (NCI-H522; NCI-H522): 13.8 µM | inhibition at 10 µM (NCI-H522; NCI-H522, read-out: percent growth inhibition): 134% | GI50 (SW-620; SW-620): 2.03 µM | inhibition at 10 µM (SW-620; SW-620, read-out: percent growth inhibition): 173% | GI50 (SF-268; SF-268): 12.8 µM | inhibition at 10 µM (SF-268; SF-268, read-out: percent growth inhibition): 38.2%
